Here are results for ten compounds from patent US20060276339A1, “Methods and compositions for increasing the efficacy of biologically-active ingredients” (priority 2002, published 2006).

For experiment [1], the system named is SW-13. As to the kind of experiment: IC50 test (NTT), 96 well plate, vinblastine sensitive parent line. The class given is cell-based. The following applies: Homo sapiens, SW13, 96 h, read-out: IC50 (sensitive at). On the procedure:
(§1) In order to determine the effect of ectophosphatase inhibitors on tumor cells resistant to a chemotherapeutic agent, 2 […] tumor cell lines were tested, a vinblastine resistant line (SW-13Vb003) and its vinblastine sensitive parent line, SW-13. A standard 4 day incubation at 37° C. and 5% CO2 was used. IC50 tests (NTT) were done using standard methodology in 96 well plate format with inhibitor concentrations ranging from 0-90 μg/ml (DMEM media). […] For NGXT194, SW-13 was sensitive at 20 μg/ml, whereas the vinblastine resistant line SW-13Vb003 was sensitive at 10 μg/ml. For NGXT196, SW-13 was sensitive at 30 μg/ml, whereas the vinblastine resistant line SW-13Vb003 was sensitive at 10 μg/ml. For NGXT1915, SW-13 was sensitive at 50 μg/ml, whereas the vinblastine resistant line SW-13Vb003 was sensitive at 20 μg/ml.

Experiment [2] deals with SW-13Vb003. As to the kind of experiment: IC50 test (NTT), 96 well plate, vinblastine resistant line. Type of experiment: cell-based. The following applies: 96 h, read-out: IC50 (sensitive at). On the procedure:
as §1

Experiment [3] deals with wild-type Arabidopsis thaliana plants. The experiment is described as follows: Arabidopsis germination selection assay, wild-type plants. Type of experiment: in vivo. The following applies: cycloheximide 500 ng/ml, phosphatase inhibitor 1 mM, 10-20 days. On the procedure:
Plant growth: Arabidopsis thaliana seeds were sown in a solid germination media containing MS salt, 2% sucrose, 0.8% agar, and vitamins (Valvekens et al., 1992). For selection assays, cycloheximide was spread on the media to achieve a final concentration of […]. Plant growth was measured by germination percentage after 6-30 days.
(§2) Plant Growth: Arabidopsis seeds were sown in a solid germination media containing MS salts (Sigma Chemical, St. Louis, Mo.), 2% sucrose, 0.8% agar, and vitamins (Valvekens et al., 1992). For selection assays, one of the following, or a combination of both, was added to media (cooled to less than 50° C. before adding) immediately prior to pouring into plates: cycloheximide at a final concentration of 500 ng/ml; α,β-methyleneadenosine 5′-diphosphate at a final concentration of 1 mM. Plant growth was measured by germination percentage after 10-20 days.
All other materials and methods were discussed above in Example 4.

Experiment [4] concerns AtPGP-1 overexpressing (MDR OE) Arabidopsis thaliana plants. Type of experiment: in vivo. As to conditions: AtPGP-1 overexpressing plants; cycloheximide 500 ng/ml, phosphatase inhibitor 1 mM; 10-20 days.
Excerpt: Similar methods were employed to express AtPGP-1 in Arabidopsis thaliana plants with the following modifications. […] This plasmid was then transformed into A. tumefaciens as described above, which was used to infect root calli to produce transgenic plants expressing AtPGP-1.
as §2

Experiment [5] relates to YMR4 yeast. The experiment is described as follows: Yeast drug selection growth assay, phosphatase deficient mutant. The class given is cell-based, Saccharomyces cerevisiae. The source says: (§3) Expression of AtPGP-1 in yeast: The AtPGP-1 cDNA (Arabidopsis thaliana MDR gene, accession #X61370) was subcloned into pVT101 downstream of the ADH promoter to create the AtPGP-1/pVT101 construct. AtPGP-1/pVT101 and pVT101 were transformed into Saccharomyces cerevisiae INVSCI (genotype: MATa, his3-Δ1, leu2, trpl-289, ura3-52) and YMR4 (genotype: MATαhis3-11,15, leu2-3, 112ura3Δ5, can Res pho5, 3::ura3A1) by a PEG lithium acetate procedure (Eble, 1992) and selected on uracil dropout medium.
(§4) Yeast Growth: Yeast were grown at 30° C. under conditions of constant selection for uracil auxotrophy. YNB (Bio101, Vista, Calif.) supplemented with CSM (uracil dropout) and 2% glucose was used to grow strains having pVT101 constructs. Cycloheximide (Sigma Chemical, St. Louis, Mo.) was added to liquid media or spread on solid media to achieve a final concentration of 500 ng/ml. Nigencm (Sigma Chemical, St. Louis, Mo.) was added to liquid media or spread on solid media to achieve a final concentration of 25 μg/ml. Yeast strains used in cycloheximide selection assays were always propagated in the presence of the cycloheximide on plates and then streaked onto new plates containing drug or no drug, such that induced resistance existed in each strain at the time of the start of the assay. […] Yeast selection assays in liquid media were quantitated by turbidity as measured by absorbance at OD600.

The subject of experiment [6] is YMR4 yeast. As to the kind of experiment: Yeast growth in suspension, adenosine salvage pathway experiments (turbidity). The class given is cell-based, Saccharomyces cerevisiae. As to conditions: added to media with cycloheximide, 72 hours. On the procedure: (§5) Selection in drug: To create drug resistant yeast strains, all four cell lines were grown up in the presence of 500 ng/ml of cycloheximide, and transferred to other cycloheximide containing plates after a period of four to six days. This transfer of cell lines and subculturing continued such that the yeast cells grew in the presence of cycloheximide for a period of at least a month.
Growth of cell lines in suspension for salvage pathway experiments: All cell lines were grown in liquid media either containing drug (for the drug selected lines) or not containing drug (for the non-drug selected lines). When the cultures reached a turbidity of 1.00 as measured at a wavelength of 600 in a spectrophotometer (OD600=1.00), 10 μl of each culture was then removed and placed in either media with nothing added, 3 mM potassium phosphate; 3 mM adenosine; 9 mM potassium phosphate and 3 mM adenosine (for controls); potassium phosphate and cycloheximide; adenosine and cycloheximide; adenosine, cycloheximide, and potassium phosphate. Cell cultures were further grown for 72 hours, and their turbidity was determined by OD600 readings on a spectrophotometer.

The test system of experiment [7] is S. cerevisiae yeast cells (YMR4, INVSC). The experiment is described as follows: Yeast growth in suspension with ATP and drug (turbidity). Type of experiment: cell-based, Saccharomyces cerevisiae. The following applies: 100 mM ATP, 48 hours. On the procedure: Cell lines: Cell lines were the same as those described above in Example 4 and 5. YMR4 MDRI is the phosphatase mutant yeast strain overexpressing AtPGP-1; YMR4 pVT011 contains vector alone; INVSC MDRI is the wild-type yeast strain overexpressing AtPGP-1; and INVSC pVT101 contains vector alone.
as §5, with “month. Cells cultured in media alone: To create cell lines that had not been preselected for their ability to grow in drug, yeast strains were grown on plates containing YNB (Bio101, Vista, Calif.) without uracil (-URA) to maintain the presence of the vector (which supplies URA) without any drugs added.” for “month.”
Growth of cells in suspension for ATP and drug selection experiments: Cells were transferred into 5 ml YNB-URA liquid media for turbidity measurements. All cell lines (both non-drug selected and drug-selected) were grown in media with the addition of either nothing, 500 ng/ml cycloheximide, 100 mM ATP, or 500 ng/ml cycloheximide and 100 mM ATP. Turbidity readings were taken after 48 hours.

In experiment [8] the test system is INVSCI yeast. As to the kind of experiment: Yeast drug selection growth assay, wild-type strain. Type of experiment: cell-based, Saccharomyces cerevisiae. The following applies: cycloheximide 500 ng/ml.
Excerpt: as §3, §4

Experiment [9] has as its system ectoapyrase activity associated with the plasma membrane of cholinergic nerve terminal of Torpedo mannorata electric organs. As to conditions: Torpedo electric organ nerve terminal plasma membrane; cited from earlier work.

≈ marks a conversion by molar mass, not a printed value.

Turning to `C/C(=N\NC(=O)c1cccc(C)c1)c1ccc2ccccc2c1` [NGXT1915], the 50% inhibitory concentration (IC50) in [1] came to 50 µg/mL (≈ 165 µM); in [2], 20 µg/mL (≈ 66.1 µM).
`Nc1ncnc2c1ncn2[C@@H]1O[C@H](COP(=O)(O)CP(=O)(O)O)[C@@H](O)[C@H]1O` [phosphatase inhibitor, α,β-methyleneadenosine 5′-diphosphate]: the germination rate in [3] amounted to 90%; in experiment [4], 83%.
As for `Cc1ccc(O)c(/C=N/NC(=O)Cc2cccc3ccccc23)c1` [NGXT194], the IC50 in experiment [1] was found to be 20 µg/mL (≈ 62.8 µM); in [2], 10 µg/mL (≈ 31.4 µM).
Consider `CO[C@@H]1C[C@@H](C[C@H]2CC[C@H](C)[C@H]([C@@H](C)C(=O)O)O2)O[C@]2(O[C@](C)([C@H]3CC[C@@](C)([C@@H]4O[C@@H]([C@H]5O[C@@](O)(CO)[C@H](C)C[C@@H]5C)C[C@@H]4C)O3)C[C@H]2C)[C@@H]1C` [nigericin], for which the “yeast growth in drug” value in [5] (YMR4 containing vector alone, nigericin 25 μg/ml) is “reduced growth”.
As for `O=P(O)(O)O` [phosphate, potassium phosphate], in experiment [6], the “effect on resistance of yeast cells to cycloheximide” value is recorded as “did not enhance resistance”.
For the compound `O=C(Cc1cccc2ccccc12)N/N=C/c1ccc(Br)cc1` [NGXT196], the IC50 was found to be 30 µg/mL (≈ 81.7 µM) in experiment [1] and 10 µg/mL (≈ 27.2 µM) in [2].
With `Nc1ncnc2c1ncn2[C@@H]1O[C@H](CO)[C@@H](O)[C@H]1O` [adenosine], the “effect on resistance of yeast cells to cycloheximide” value in experiment [6] is recorded as “did not enhance resistance”.
With `Nc1ncnc2c1ncn2[C@@H]1O[C@H](COP(=O)(O)OP(=O)(O)OP(=O)(O)O)[C@@H](O)[C@H]1O` [ATP], the “yeast growth in high levels of ATP” value in [7] (cells not previously selected in drug) was “able to grow”; in experiment [7] (cells previously grown in drug (resistant), not overexpressing AtPGP-1), “not able to grow”.
In the case of `C[C@@H]1C[C@@H]([C@H](O)CC2CC(=O)NC(=O)C2)C(=O)[C@@H](C)C1` [cycloheximide], the “yeast growth in drug” value in [5] (YMR4 mutant, cycloheximide 500 ng/ml) is “did not grow”; in [8], “did grow”. Also, the germination rate in experiment [3] is reported as 2%; in [4], 50%.
In the case of `Cc1ccc(C(=O)Nc2ccc(S(=O)(=O)O)c3cc(S(=O)(=O)O)cc(S(=O)(=O)O)c23)cc1NC(=O)c1cccc(NC(=O)Nc2cccc(C(=O)Nc3cc(C(=O)Nc4ccc(S(=O)(=O)O)c5cc(S(=O)(=O)O)cc(S(=O)(=O)O)c45)ccc3C)c2)c1` [Suramin, 8,8′[Carbonylbis[imino-3,1-phenylenecarbonylimino(4-methyl-3,1-phenylene)carbonylimino]]bis-1,3,5-naphthalenetrisulfonic acid], in [9], the “inhibition of ectoapyrase activity” value is reported as “potent non-competitive inhibitor”.

The IC50 is the concentration needed to halve the response being measured.
